Reference: article PMC12214830, “The human RIF1-Long isoform interacts with BRCA1 to promote recombinational fork repair under DNA replication stress” (Nature Communications, 2025)
Entries after “also recorded” stand apart in the source; their conditions may differ. Values belong to the molecule of their own block, whether it stands above or below them. Non-standard residues stand in square brackets, D forms with d. No end group written: not given here. pS = N[C@@H](COP(=O)(O)O)C(=O)O

Key:
RIF1-L phosphoS2265 = test: Western blot, RIF1-L phosphoS2265, HeLa cells; type: cell-based, human
Method: Cells were harvested in 10 mM Tris-HCl pH 7.5, 2 mM EDTA buffer and lysed with laemmli sample buffer (Bio-Rad, 1610737, supplemented with 5% β-mercaptoethanol). Samples were heated at 95 °C for 15 min and centrifuged at 13,000 × g for 15 min. Protein concentrations were measured by RC DC Protein Assay (Bio-Rad, 5000122). Equal amounts of total proteins for each sample were separated in Mini-PROTEAN TGX Stain-free Precast Gels (Bio-Rad) by SDS-PAGE. Gels were at this stage imaged with the ChemiDoc Touch Imaging System (Bio-Rad) using the ‘Protein gel – Stain free’ module to obtain stain-free gel images. Proteins on gel were transferred to PVDF membranes (Bio-Rad, 1704274) using the Trans-Blot Turbo Blotting System (Bio-Rad). Membranes were blocked in 3% BSA in TBS-T (1x TBS supplemented with 0.1% Tween-20) at RT for 1 h, followed by incubation with primary antibodies overnight at 4 °C. Membranes were washed with TBS-T and then incubated with secondary antibodies for 1 h at RT. The blots were developed with Clarity ECL reagents (Bio-Rad, 1705060) and imaged with the ChemiDoc Touch Imaging System (Bio-Rad). Primary antibodies used for western blotting include anti-RIF1 (Bethyl Laboratories, A300-568A. 1:5000); anti-RIF1-L-Phospho-S2265 (amsbio, custom. 1:5000); anti-BRCA1 (D-9) (Santa Cruz Biotechnology, sc-6954. 1:1000); anti-BARD1 (Bethyl Laboratories, A300-263A. 1:1000); anti-53BP1 (Novus Biologicals, NB100-94. 1:5000); anti-PP1α (G4) (Santa Cruz Biotechnology, sc-271762. 1:1000); anti-Tubulin (YOL1/34) (Santa Cruz Biotechnology, sc-53030. 1:4000); anti-FLAG (M2) (Sigma-Aldrich, F1804. 1:2000); anti-GFP (Chromotek, 3h9. 1:2000); anti-RFP (Chromotek, 5f8. 1:2000). Uncropped and unprocessed Western Blot images are provided in the Source Data file.

[1] = system: RIF1-BRCA1 proximity in RPE-1 cells; test: RIF1-BRCA1 proximity ligation assay, RPE-1 cells; type: cell-based, human
Method: (§1) Proximity ligation assays were performed using the Duolink In Situ PLA Fluorescence Protocol (Sigma-Aldrich, DUO92101) following the manufacturer’s instruction. Cells were grown on glass coverslips and treated as indicated for specific experiments. Cells were then permeabilized with 0.5% TritonX-100 in PBS for 10 min on ice, and fixed with 3% formaldehyde, 2% sucrose in PBS for 10 min at room temperature (RT). After fixation, coverslips were blocked in 3% BSA in PBS for 1 h at RT and incubated with primary antibodies (anti-RIF1, Bethel laboratories A300-568A, 1:1000 dilution; anti-BRCA1, Santa Cruz Biotechnologies, sc-6954, 1:200 dilution), for 1 h at RT in a humidity chamber. Primary antibodies were then washed off with PLA washing buffer A supplied in the Duolink In Situ PLA kit. Coverslips were next incubated sequentially with PLA Probes (1 h at 37 °C), ligation solution (30 min at 37 °C) and amplification solution (100 min at 37 °C), with washes by washing buffer A in between each step. At the end of incubation, coverslips were washed with washing buffer B supplied in the Duolink In Situ PLA kit. Coverslips were then mounted on glass slides with PLA Mounting medium with DAPI. Images were captured by fluorescence microscopy (Zeiss Axio Imager). PLA foci number in each nucleus were analysed by CellProfiler Software[74] with a custom-made pipeline.
For EdU labelling combined with proximity ligation assay, cells were labelled with 10 µM EdU for 15 min, washed free of EdU and next incubated with medium containing 4 mM HU medium for 4 h. Cells were then permeabilized, fixed and subjected to RIF1-BRCA1 PLA procedures. After all PLA steps, EdU detection was performed following manufacturer’s instructions in the Click-iT EdU Imaging Kit (Invitrogen, C10640).
(§2) For proximity ligation assays and immunofluorescence signal intensity measurements, when comparing between two samples, statistical significance of differences was calculated by Mann-Whitney test for non-parametric distributions using GraphPad Prism software (v.9). When comparing among three or more samples, p values were calculated by Kruskal-Wallis test for non-parametric distributions with Dunn’s multiple comparisons using GraphPad Prism software (v.9). For RIF1 foci formation analysis (Fig. 6B), p values were calculated by two-tailed Student’s t test. For nuclear BRCA1 intensity fold change analyses (Fig. 6C, D), p values were calculated by two-tailed one-sample t test using GraphPad Prism software (v.9). For RAD51 foci formation analyses (Fig. 7B, E and Supplementary Fig. 7B), p values were calculated by chi-square test. For HR Reporter assay analysis (Fig. 7G and Supplementary Fig. 7L), p values were calculated by two-tailed paired Student’s t test. For micronuclei frequency analysis (Fig. 7H), p values were calculated by one-tailed paired Student’s t test. All Student’s t tests were performed with Excel T.TEST function. Chi-square tests were performed with the online Chi-square test calculator at https://www.socscistatistics.com/tests/chisquare2/default2.aspx. Sample number n for all box-and-whisker plots and dot plots are listed in Supplementary Data 1.

[2] = system: RIF1-BRCA1 proximity in HeLa cells; test: RIF1-BRCA1 proximity ligation assay, HeLa cells; type: cell-based, human; conditions: HeLa +RIF1-L
Method: as §1, §2

micronuclei = micronuclei frequency, HeLa cells; type: cell-based, human; conditions: Fig.7H
Method: as §2

BRCA1 nuclear signal = test: BRCA1 nuclear immunofluorescence intensity, HeLa cells; type: cell-based, human
Method: Cells were grown on glass coverslips and treated as desired. Cells were then permeabilized with 0.5% TritonX-100 in PBS for 7 min on ice, and fixed with 4% w/v formaldehyde solution (Sigma HT5012) for 10 min at room temperature (RT). After fixation, coverslips were blocked with 3% BSA in PBS (RT, 1 h), incubated with primary antibodies (RT, 2 h), washed with PBS three times and incubated with secondary antibodies (RT, 1 h). Primary antibodies used for immunofluorescence include anti-γH2A.X (20E3) (Cell Signalling Technology, 9718. 1:500); anti-RPA32/RPA2 (9H8) (Abcam, ab2175. 1:200); anti-RAD51 (H92) (Santa Cruz Biotechnology, sc-8349. 1:100); anti-BrdU (B44) (BD Biosciences, 347580. 1:100); Coverslips were then mounted on glass slides with mounting medium with DAPI. Images were captured by either standard (Zeiss Axio Imager) or confocal (Zeiss LSM-880) microscopy. Fluorescence signal intensities within each nucleus were analysed by CellProfiler software with custom-made pipelines. […]
as §2, with “All Student’s t tests were performed with Excel T.TEST function. Chi-square tests were performed with the online Chi-square test calculator at https://www.socscistatistics.com/tests/chisquare2/default2.aspx. Sample number n for all box-and-whisker plots and dot plots are listed in Supplementary Data 1.” left out

[3] = target: BRCA1 C-terminal tandem BRCT domains (UniProt P38398); test: fluorescence polarisation titration; conditions: reference: pS2265 peptide, untreated; sites S2265
BRCA1-BRCT domain = test: X-ray crystal structure of peptide with BRCA1-BRCT (PDB 8RS8); type: binding, human
Method: For crystallographic studies, the N-terminal HIS-SUMO tag was removed from the His6-SUMO-BRCA1-BRCT2 by incubation with GST-3C protease (in house) for 12 h at 4 °C. A Superdex 75 16/60 size exclusion column (GE Healthcare) was used to purify the BRCT2 domains to homogeneity in 10 mM HEPES pH 7.5, 200 mM NaCl, 0.5 mM TCEP.
An unlabelled RIF1 pS2265 peptide (SPGSR(pS)PKFKS) (Peptide Protein Research Ltd, Bishops Waltham, UK) was mixed with the pure BRCA1-BRCT2 domains at a five molar excess prior to concentration to 15 mg/ml for use in crystallisation trials. Crystals grew in condition MORPHEUS E2 (55.5 mM MES, 44.5 mM Imidazole, 120 mM Diethylene glycol, 120 mM Triethylene-glycol, 120 mM Tetraethylene glycol, 120 mM Pentaethylene glycol, 20% (v/v) Ethylene glycol, 10% (w/v) PEG 8000) (Molecular Dimensions) and were looped before flash freezing in liquid nitrogen. Data were collected on beamline I04-1 at the Diamond Synchrotron Lightsource and the structure was determined using PHASER[70] to perform molecular replacement with PDB 4IGK as a search model before refinement using the PHENIX software package. Figures were produced using PyMOL v2.2.2.

[4] = Chk1i (PF-477736) 1 µM 24 h + HU 4 mM 24 h
[5] = Fig 4F, Chk1i (PF-477736) 1 µM 24 h + HU 4 mM 24 h
[6] = Fig S4G (repeat), Chk1i (PF-477736) 1µM + HU 4mM 24hr
[7] = Fig S4H, ATRi (VE-821) 1µM + HU 4mM 24hr
[8] = ATRi (VE-821) 1 µM 24 h + HU 4 mM 24 h
[9] = Fig 4F, ATRi (VE-821) 1 µM 24 h + HU 4 mM 24 h
[10] = Fig S4G (repeat), ATRi (VE-821) 1µM + HU 4mM 24hr

Molecule: Cn1cc(-c2[nH]c3cc(NC(=O)[C@H](N)C4CCCCC4)cc4c3c2C=NNC4=O)cn1 [PF-477736]
HU-induced reduction of phosphoS2265 signal (RIF1-L phosphoS2265; [4]): partially reversed by Chk1 inhibition
RIF1-BRCA1 PLA foci formation [1, 4]: abolished PLA foci formation
RIF1-BRCA1 PLA foci per nucleus, mean [1, 5]: 0.156
RIF1-BRCA1 PLA foci per nucleus, median [1, 5]: 0
RIF1-BRCA1 PLA foci per nucleus, mean [1, 6]: 0.316
RIF1-BRCA1 PLA foci per nucleus, median [1, 6]: 0

Molecule: CS(=O)(=O)c1ccc(-c2cnc(N)c(C(=O)Nc3ccccc3)n2)cc1 [VE-821]
RIF1-BRCA1 PLA foci per nucleus, mean [2, 7]: 13.09
RIF1-BRCA1 PLA foci per nucleus, median [2, 7]: 12
RIF1-BRCA1 PLA [2, 8]: also reduced RIF1-BRCA1 PLA
HU-induced reduction of phosphoS2265 signal (RIF1-L phosphoS2265; [8]): reversed by simultaneous ATR inhibition
RIF1-BRCA1 proximity signal [1, 8]: significantly lowered the RIF1-BRCA1 proximity signal
RIF1-BRCA1 PLA foci per nucleus, mean [1, 9]: 1.672
RIF1-BRCA1 PLA foci per nucleus, median [1, 9]: 1
RIF1-BRCA1 PLA foci per nucleus, mean [1, 10]: 1.661
RIF1-BRCA1 PLA foci per nucleus, median [1, 10]: 1

Molecule: RIF1-L
Micronuclei per 100 (micronuclei; HU, experiment 14Apr2024): 7.605
Micronuclei per 100 (micronuclei; HeLa RIF1 KO + GFP-RIF1 derivative cells, HU, experiment 07Jun2024): 5.84
Micronuclei per 100 (micronuclei; HeLa RIF1 KO + GFP-RIF1 derivative cells, unt, experiment 07Jun2024): 3.60
Micronuclei per 100 (micronuclei; unt, experiment 14Apr2024): 3.159
BRCA1 nuclear signal mean intensity (BRCA1 nuclear signal; Exp 1): 12.65
BRCA1 nuclear signal mean intensity (BRCA1 nuclear signal; Exp 2): 11.6
BRCA1 nuclear signal mean intensity (BRCA1 nuclear signal; Exp 3): 10.09

binding against the reference [3]: lost
Molecule: RIF1-Long (RIF1-L) (from UniProt Q5UIP0) λ phosphatase treated peptide

Molecule: SPGSR[pS]PKFKS [RIF1-L phospho-peptide, unlabelled RIF1 pS2265 peptide used for crystallography]
binding mode in crystal (BRCA1-BRCT domain; MORPHEUS E2): fits within the BRCT pocket of BRCA1 as expected; also recorded: positively charged amino acids K^2267 and K^2269 of RIF1-L lie adjacent to the negatively charged E^1698 BRCA1 residue
binding mode in crystal (BRCA1-BRCT domain; MORPHEUS E2, listed as RIF1-L peptide): found in the canonical phosphate binding pocket of the BRCA1 BRCTs
